The values below come from patent US20020090619A1, “Methods for identifying mitochondrial divalent cation transporters” (priority 2000, published 2002).

The nature of assay [1]: ETH 129 mediated cation transport into Quin-2 loaded POPC vesicles. It counts as biochemical. To be noted: 1.0 mM CaCl2, no Val, FIG. 5. How it is done: Unilamellar vesicles loaded with Quin-2 were prepared from 1-palmitoyl-2-oleoyl-sn-glycerophosphatidylcholine (POPC) by freeze-thaw extrusion (Erdahl et al., 1994 Biophys. J. 66:1678; Erdahl et al., 1995 Biophys. J. 69:2350). The formation medium contained 5 mM Quin-2 (K+), 10 mM Hepes (K+), pH 7.00, and 100 mM KCl. A high internal K+ concentration was sought to allow the generation of membrane potentials of varying magnitude (see below). The preparations obtained were applied to Sephadex™ G-50 mini-columns (Pharmacia, Piscataway N.J.) and eluted by low speed centrifugation (Fry et al., 1978 Anal. Biochem. 90:809), to replace the external medium with a 10 mM Hepes buffer (Na+), pH 7.00 (Erdahl et al., 1994 Biophys. J. 66:1678; Erdahl et al., 1995 Biophys. J. 69:2350). The nominal concentration of POPC in final preparations was determined as lipid phosphorus (Bartlett, 1959 J Biol. Chem. 234:466) and was near 80 mM. The average diameter of these vesicles was 71 nm as determined by freeze-fracture electron microscopy (Chapman et al., 1990 Chem. Phys. Lipids 55:73). They contained entrapped K+ at approximately 125 mM, as determined by atomic absorption spectroscopy, and Quin-2 at approximately 6 mM. The latter value was determined by titrating lysed vesicles with a standard solution of CaCl2 and was about one third of the expected value (Erdahl et al., 1995 Bipohys. J. 69:3250). The high solute level in the formation medium reduced the efficiency of Quin-2 entrapment by reducing the effectiveness of a freeze-thaw driven solute concentrating mechanism that normally elevates the internal concentrations of solutes, relative to the external medium (Chapman et al., 1990 Chem. Phys. Lipids 55:73; Chapman et al., 1990 Chem. Phys. Lipids 60:201).
POPC vesicles containing Quin-2 were utilized at a nominal phospholipid concentration of 1.0 mM, and at 25° C. The external medium contained polyvalent cation salts as described below, 100 mM NaCl, or mixtures of NaCl and KCl totaling […], and 10 mM Hepes, pH 7.00, unless otherwise noted. The medium pH was adjusted with NaOH that had been passed over Chelex 100 columns to remove contaminating cations (Erdahl et al., 1994 Biophys. J. 66:1678). In most cases an inside negative membrane electrical potential was present during the experiments. This was generated by the presence of 0.5 μM valinomycin (Val), which transports K+ out of the vesicles electrogenically (Erdahl et al., 1994 Biophys. J. 66:1678). The magnitude of the potential was controlled by varying the concentration ratio of Na+ to K+ in the external medium. A TPP+electrode was used to measure the potential (Broekemeier et al, 1998 Biochem. 37:13059), and thereby to verify that the calculated values were obtained. For these purposes the incubation medium contained 2.0 μM TPP.Cl and the entrapped volume was taken to be 2.02 μl/ml at a nominal POPC concentration of 1.0 mM (Chapman et al., 1990 Chem. Phys. Lipids 55:73).
Val was omitted when an imposed membrane potential was not desired, or in some cases 5 μM of the protonophore carbonyl cyanide m-chlorophenylhydrazone (CCP) was present instead of Val.
The transport of polyvalent cations was monitored by difference absorbance measurements which detected formation of the Quin-2:cation complex within the vesicle lumen. An Aminco DW2a spectrophotometer operated in the dual wavelength mode was employed. In addition, an Oriel No. 59800 band pass filter was used between the cuvette and the beam scrambler-photomultiplier assembly to prevent detection of the fluorescent light emitted by Quin-2. The sample wavelength for all cations was 264 nm. The reference wavelengths were at an isosbestic point in the Quin-2/Quin-2:cation complex difference spectrum of interest. These wavelengths varied slightly from cation to cation, as previously described (Erdahl et al., 1996 Biochem. 35:13817). […]

Another assay has as its system yeast mitochondria. In words: Membrane potential ΔΨ of isolated yeast mitochondria (safranin O). It is filed as biochemical, Saccharomyces cerevisiae. To be noted: for effect on the depression of ΔΨ produced by ETH 129 plus Ca2+: 60 μM CaCl2, 3.6 μM ETH 129. How it is done:
The yeast strain W303-1A (Saccharomyces cerevisiae) was grown aerobically at 30° C. in a medium containing 2% lactate, 1% yeast extract, 2% peptone, 0.05% dextrose, and 0.01% adenine at pH 5.0, and cells were harvested during the logarithmic phase (A600=1.8−2.2). Mitochondria were isolated from spheroplasts as previously described (Jung et al., 1997 J. Biol. Chem. 272:21104), except that 0.6 M sucrose was used in the homogenization medium instead of 0.6 M mannitol (Daum et al., 1982 J. Biol. Chem. 257:13028). The resulting preparations were maintained on ice and were suspended in 0.6 M mannitol 20 mM HEPES (K+) (pH 6.8), containing 0.75 mg/ml BSA and 0.1 mM EGTA. Protein concentration was determined by a reduced volume Biuret method in which 50 μl of the final preparation were solubilized by adding an equal volume of 10% deoxycholate (Na+), with 0.4 ml of Biuret reagent added to the resulting mixture. BSA was employed as the standard.
Unless otherwise noted, mitochondria were incubated at 1 mg protein/ml and at approximately 25° C. in a medium that contained 0.6 M mannitol, 10 mM Pi (K+), 10 mM Hepes (TEA+), pH 7.2, plus 1 mM ethanol as an oxidizable substrate. Compounds having a low solubility in water were added from stock solutions prepared in methanol or DMSO. Ca2+ transport and membrane potential were monitored using the indicating dyes antipyrylazo III (ΔA720-790) and safranin O (ΔA511-533), respectively (Akerman et al., 1976 FEBS Lett. 68:191; Scarpa et al., 1978 Biochem. 17:1378). An SLM Aminco DW-2C spectrophotometer operated in the dual wavelength mode was employed for these purposes. The same instrument, operated in split beam mode, was used to monitor mitochondrial swelling as a decrease in apparent absorbance of mitochondrial suspensions at 540 nm. Oxygen consumption data were obtained using a Clark-type electrode in parallel experiments. Atomic absorption spectroscopy was utilized to monitor the transport of other cations by yeast mitochondria. Briefly, samples were taken at appropriate times and the mitochondria were rapidly sedimented in a microcentrifuge. After carefully removing supernatants, the pellets were solubilized with 2 N percholoric acid (overnight) and centrifuged a second time. The resulting supernatants were diluted with an appropriate volume of distilled water and the concentration of the cation in question was subsequently determined.

Assay [2] concerns isolated yeast mitochondria. Description: Ca2+ transport in isolated yeast mitochondria expressing aequorin (luminescence). It is filed as biochemical, Saccharomyces cerevisiae. To be noted: for Rate of increase in matrix Ca^2+ concentration / % of Control: external free Ca^2+ 0.8 μM, agent 1 μM; for Rate of increase in matrix Ca^2+ concentration: triplicate; for % of Control: rate of increase in matrix Ca^2+. How it is done:
For preculture, the transformant was inoculated into 50 ml of SC-U plus 2% glucose, and incubated in an air shaker at 180 rpm and 30° C. At 24 hr, the preculture was transferred to 500 ml of a medium containing 1% yeast extract, 2% peptone, 2% lactate, 1% galactose, 0.012% adenine, pH 5 w/NaOH, and growth was continued under conditions which were otherwise the same. Cells were harvested after an additional 24 hr, spheroplasts were prepared using zymolyase, and mitochondria were isolated by the method of Daum et al. (1982) as previously described (Jung et al., 1997). The final pellet was resuspended at ˜20 mg protein/ml in 0.6 M mannitol, 20 mM HEPES (K^+ salt, pH 6.8). Apoaequorin in the intact or disrupted mitochondria was reconstituted by incubation with coelenterazine as described above for cells.
For most experiments, the mitochondria were present at 0.4 mg protein/ml in a standard medium that contained 0.3 M KCl, 20 mM HEPES, (K^+ salt, pH 7.10), 10 mM KH2PO4, 2 mM EGTA, and 2 mM MgCl2. Other additions are described in greater detail below. Ca^2+ buffers were formed by adding various amounts of CaCl2 to this EGTA containing medium. The free Ca^2+ concentrations which resulted were calculated using a computer program (Brooks et al., 1992 Anal. Biochem. 201:119).
Luminescence measurements were carried out in 6×50 mm culture tubes, using a total volume of 0.3 ml, and were started by injection of 5-20 μl of mitochondria or cells. A SAI model 3000 integrating photometer was employed, with AJD sampling at 0.4 seconds intervals driven by Asyst software. Values were transformed into corresponding Ca^2+ concentrations by computer assisted calculations based upon published calibration methods (Allen et al., 1977 Science 195:996; Brini et al., 1995 J. Biol. Chem. 270:9896). For each value, the ratio of observed luminescence (L) to the potential luminescence remaining (Lmax) was calculated, and compared to a calibration curve which relates this ratio to the free Ca^2+ concentration. Thus, complete calibrated progress curves were generated. The total luminescence available initially (Ltotal) must be known and was determined in separate experiments, wherein a saturating Ca^2+ concentration (20 μM) is employed to discharge the aequorin completely. This value allows Lmax to be calculated at any time, as Ltotal minus the sum of luminescence that already occurred.
The calibration data were obtained at an ionic strength of 335 mM and in the presence of 1 mM Mg^2+, to mimic conditions in the mitochondrial matrix, because both factors influence the affinity of aequorin for Ca2+ (Cobbold et al., 1987 Biochem. J. 248:313). Luminescence values were corrected for low background values that are obtained when Ca^2+ is absent before conducting further calculations.

SMILES strings stand for the structures.

On to `N#CC(C#N)=NNc1cccc(Cl)c1` [CCP, carbonyl cyanide m-chlorophenylhydrazone], for which the “activation of ETH 129 mediated Ca2+ transport” value in assay [1] is “rate enhancement increasing progressively as the CCP concentration rose to 5 μM”.
Turning to `O=C(O)CN(CCOCCOCCN(CC(=O)O)CC(=O)O)CC(=O)O` [EGTA], in the assay on yeast mitochondria, the “effect on the depression of ΔΨ produced by ETH 129 plus Ca2+” value is on record as “reversed”.
On to `CO[C@@H]1C[C@@H](C[C@H]2CC[C@H](C)[C@H]([C@@H](C)C(=O)O)O2)O[C@]2(O[C@](C)([C@H]3CC[C@@](C)([C@@H]4O[C@@H]([C@H]5O[C@@](O)(CO)[C@H](C)C[C@@H]5C)C[C@@H]4C)O3)C[C@H]2C)[C@@H]1C` [Nigericin], for which, in assay [2], the “influence on activity of the transporter in yeast mitochondria” value is “not influenced”, the “Rate of increase in matrix Ca^2+ concentration” value is 2.17 ± .12 nM/s and the “% of Control” value was determined as 111%.
With `N.N.N.N.N.N.N.N.N.N.N.N.N.N.[Cl-].[Cl-].[Cl-].[Cl-].[Cl-].[Cl-].[O-2].[O-2].[Ru+3].[Ru+3].[Ru+4]` [Ruthenium red], in assay [2], the “influence on activity of the transporter in yeast mitochondria” value is given as “not influenced”, the “Rate of increase in matrix Ca^2+ concentration” value is 2.21 ± .23 nM/s and the “% of Control” value amounted to 113%.
In the same order, the values of `CC(C)[C@@H]1NC(=O)[C@H](C)OC(=O)[C@@H](C(C)C)NC(=O)[C@@H](C(C)C)OC(=O)[C@H](C(C)C)NC(=O)[C@H](C)OC(=O)[C@@H](C(C)C)NC(=O)[C@@H](C(C)C)OC(=O)[C@H](C(C)C)NC(=O)[C@H](C)OC(=O)[C@@H](C(C)C)NC(=O)[C@@H](C(C)C)OC1=O` [Valinomycin] are “not influenced”, 2.32 ± .31 nM/s and 118%.
For the compound `C=C1[C@@H]2CC[C@H]3[C@]4(C)C[C@H](O[C@@H]5O[C@H](CO)[C@@H](OS(=O)(=O)O)[C@H](OS(=O)(=O)O)[C@H]5OC(=O)CC(C)C)CC(C(=O)O)(C(=O)O)[C@H]4CC[C@]3(C2)[C@H]1O` [carboxyatractyloside], in the assay with yeast mitochondria, the “effect on the depression of ΔΨ produced by ETH 129 plus Ca2+” value is “no effect”.
Take `C[C@H](CCC(=O)O)C[C@H](C)C[C@H](C)C(=O)/C=C(\O)[C@H](C)C[C@H](C)C/C=C/[C@@H](C)[C@@H](O)[C@@H](C)[C@@H](O)C[C@@H]1CC[C@@](C)([C@H]2CC[C@@](C)([C@@H](C)O)O2)O1` [ionomycin]: the “effect on ΔΨ, ionophore together with Ca2+” value with yeast mitochondria (BSA absent, CaCl2 plus ionophore, FIG. 11C) was “not duplicated”.
